Source: patent US20260138949A1, “NOVEL COMPOUND AS PHOSPHOLIPASE D INHIBITOR AND USE THEREOF” (UIF (UNIVERSITY INDUSTRY FOUNDATION), YONSEI UNIVERSITY, priority 2022, published 2026)

test system: phospholipase D1; assay: PLD activity in HCT116 cells ([3H]phosphatidylbutanol, TLC); type: cell-based, human; conditions: compound 10 μM, cells without the compound = 100%
Description: To evaluate the inhibitory effect of the compounds according to the present invention on phospholipase D1 activity, experiments were conducted as follows.
For the analysis of PLD activity in cells, human colon cancer cell line (HCT116) was cultured in a 6-well plate at 37° C. for 24 hours, washed twice with phosphate-buffered saline (PBS), and then replaced with medium containing [^3H]myristate and cultured for 24 hours. After the culture, the cells were washed three times with PBS, treated with 1-butanol, and the drug was added to a final concentration of 10 μM. The cells were trypsinized and suspended, and the amount of [^3H]phosphatidylbutanol produced in the cell suspension was measured and evaluated for PLD activity using thin layer chromatography (TLC), and the results are shown in Table 1 below.
The Remaining activity % at 10 μM in Table 1 is calculated by setting the amount of [^3H]phosphatidylbutanol produced in cells without the compound as 100% and calculating the amount of [^3H]phosphatidylbutanol produced in cells treated with the compound as a percentage. Therefore, the lower the value of Remaining activity %, the higher the PLD inhibitory activity.

SMILES | Remaining activity % at 10 μM
O=C(Nc1cc(C(F)(F)F)cc(C(F)(F)F)c1)c1cc2cc(Cl)ccc2[nH]1 [Example 1-99, N-(3,5-bis(trifluoromethyl)phenyl)-5-chloro-1H-indole-2-carboxamide] | not active
O=C(Cc1c[nH]c2ccccc12)Nc1ccc(F)cn1 [Example 1-22, N-(5-fluoropyridin-2-yl)-2-(1H-indol-3-yl)acetamide] | 66.5%
CC(C)(C)c1ccc(NC(=O)Cc2c[nH]c3ccccc23)cc1 [Example 1-27, N-(4-tert-butylphenyl)-2-(1H-indol-3-yl)acetamide] | 81.22%
O=C(CCCC[C@@H]1SC[C@@H]2NC(=O)N[C@@H]21)NNC(=O)c1ccc2[nH]c(C(=O)Nc3cc(C(F)(F)F)cc(C(F)(F)F)c3)cc2c1 [Example 1-119, N-(3,5-bis(trifluoromethyl)phenyl)-5-(2-(5-((3aS,4S,6aR)-2-oxohexahydro-1H-thieno[3,4-d]imidazol-4-yl)pentanoyl)hydrazine-1-carbonyl)-1H-indole-2-carboxamide] | 27.26%
O=C(CCc1c[nH]c2ccccc12)NCc1ccc(Cl)c(Cl)c1 [Example 1-72, N-(3,4-dichlorobenzyl)-3-(1H-indol-3-yl)propanamide] | not active
O=C(Cc1c[nH]c2ccccc12)NCCc1ccc(Br)cc1 [Example 1-60, N-(4-bromophenethyl)-2-(1H-indol-3-yl)acetamide] | 82.15%
O=C(Cc1c[nH]c2ccccc12)NNc1cccc(Cl)c1 [Example 1-52, N′-(3-chlorophenyl)-2-(1H-indol-3-yl)acetohydrazide] | 95.18%
O=C(Nc1cc(O)cc(O)c1)c1cc2cc(F)ccc2[nH]1 [Example 1-112, N-(3,5-dihydroxyphenyl)-5-fluoro-1H-indole-2-carboxamide] | not active
CC(C)c1ccc(NC(=O)Cc2c[nH]c3ccccc23)cc1 [Example 1-33, 2-(1H-indol-3-yl)-N-(4-isopropylphenyl)acetamide] | 83.43%
COc1ccc(NC(=O)c2c[nH]c3ccccc23)cc1OC [Example 1-3, N-(3,4-dimethoxyphenyl)-1H-indole-3-carboxamide] | 62.73%
O=C(Nc1cc(F)cc(F)c1)c1cc2cc(F)ccc2[nH]1 [Example 1-92, N-(3,5-difluorophenyl)-5-fluoro-1H-indole-2-carboxamide] | 56.88%
COc1ccc(NC(=O)Cc2c[nH]c3ccccc23)cc1 [Example 1-11, 2-(1H-indol-3-yl)-N-(4-methoxyphenyl)acetamide] | not active
O=C(Cc1c[nH]c2ccccc12)Nc1ccccc1 [Example 1-23, 2-(1H-indol-3-yl)-N-phenylacetamide] | not active
O=C(Nc1ccc(O)c(O)c1)c1c[nH]c2ccccc12 [Example 1-105, N-(3,4-dihydroxyphenyl)-1H-indole-3-carboxamide] | 39.17%
O=C(Cc1c[nH]c2ccccc12)NCc1ccncc1 [Example 1-58, 2-(1H-indol-3-yl)-N-(pyridin-4-ylmethyl)acetamide] | not active
O=C(Nc1cccc(C(F)(F)F)c1)c1cc2cc(F)ccc2[nH]1 [Example 1-95, 5-fluoro-N-(3-(trifluoromethyl)phenyl)-1H-indole-2-carboxamide] | 52.08%

SMILES | Remaining activity % at 10 μM
O=C(O)c1ccc2[nH]c(C(=O)Nc3cc(C(F)(F)F)cc(C(F)(F)F)c3)cc2c1 [Example 1-101, 2-((3,5-bis(trifluoromethyl)phenyl)carbamoyl)-1H-indole-5-carboxylic acid] | 57.61%
O=C(CCCc1c[nH]c2ccccc12)Nc1cc(C(F)(F)F)cc(C(F)(F)F)c1 [Example 1-77, N-(3,5-bis(trifluoromethyl)phenyl)-4-(1H-indol-3-yl)butanamide] | 50.79%
COc1cccc(NC(=O)Cc2c[nH]c3ccccc23)c1 [Example 1-10, 2-(1H-indol-3-yl)-N-(3-methoxyphenyl)acetamide] | 89.33%
COc1ccc(CNC(=O)CCc2c[nH]c3ccccc23)cc1 [Example 1-71, 3-(1H-indol-3-yl)-N-(4-methoxybenzyl)propanamide] | 51.45%
COc1cc(NC(=O)c2cc3cc(F)ccc3[nH]2)cc(OC)c1 [Example 1-96, N-(3,5-dimethoxyphenyl)-5-fluoro-1H-indole-2-carboxamide] | 98.38%
COC(=O)c1ccc(CNC(=O)c2cc3ccccc3[nH]2)cc1 [Example 1-88, methyl 4-((1H-indole-2-carboxamido)methyl)benzoate] | 37.79%
O=C(NCc1ccc(O)c(O)c1)c1cc2cc(F)ccc2[nH]1 [Example 1-111, N-(3,4-dihydroxybenzyl)-5-fluoro-1H-indole-2-carboxamide] | 54.41%
O=C(Cc1c[nH]c2ccccc12)NNc1ccc(Cl)c(Cl)c1 [Example 1-54, N′-(3,4-dichlorophenyl)-2-(1H-indol-3-yl)acetohydrazide] | not active
O=C(Cc1c[nH]c2ccccc12)Nc1ccc(Cl)c([N+](=O)[O-])c1 [Example 1-19, N-(4-chloro-3-nitrophenyl)-2-(1H-indol-3-yl)acetamide] | not active
O=C(Cc1c[nH]c2ccccc12)NCc1ccccn1 [Example 1-56, 2-(1H-indol-3-yl)-N-(pyridin-2-ylmethyl)acetamide] | 96.79%
O=C(Nc1cc(C(F)(F)F)cc(C(F)(F)F)c1)c1cc2cc(C(F)(F)F)ccc2[nH]1 [Example 1-102, N-(3,5-bis(trifluoromethyl)phenyl)-5-(trifluoromethyl)-1H-indole-2-carboxamide] | 35.11%
O=C(Cc1c[nH]c2ccccc12)Nc1ccc(Br)cc1 [Example 1-17, N-(4-bromophenyl)-2-(1H-indol-3-yl)acetamide] | not active
O=C(Cc1c[nH]c2ccccc12)Nc1cccc(F)c1 [Example 1-13, N-(3-fluorophenyl)-2-(1H-indol-3-yl)acetamide] | 30.28%
COc1ccc(CNC(=O)CCc2c[nH]c3ccccc23)cc1OC [Example 1-73, N-(3,4-dimethoxybenzyl)-3-(1H-indol-3-yl)propanamide] | 95.81%
O=C(Cc1c[nH]c2ccccc12)NCc1cccnc1 [Example 1-57, 2-(1H-indol-3-yl)-N-(pyridin-3-ylmethyl)acetamide] | not active

same assay, conditions: compound 10 μM, cells without the compound = 100%, 10 µM

SMILES | Remaining activity % at 10 μM
O=C(NNc1ccc(Cl)c(Cl)c1)c1cc2ccccc2[nH]1 [Example 1-89, N′-(3,4-dichlorophenyl)-1H-indole-2-carbohydrazide] | 83.22%
